Like-named read-outs stand apart in the source and are kept apart here.
Columns and labels:
[1] = Toxicity of formulations on mammalian cell lines (cell viability, Coulter); assay type: cell-based, murine
Procedure: (§1) Cell Lines: A20: B-cell tumor cell line 9C127: T-cell hybridoma cell line LB/62287: B-cell lymphoma cell line P388.D1: Macrophage tumor cell line
(§2) Cell lines (1×10^5 /well; >85% viability) are cultured in 24 well flat bottom plates in RPMI® medium (Gibco Laboratories, Grand Island, N.Y.) supplemented with 10% fetal calf serum, streptomycin (100 μg/mL) and penicillin (100 U/mL). Cultures are incubated (37° C., 10% CO2) with the following concentrations of vehicles:
(§3) c) 1.0%, 0.1% or 0.01% Triacetin or IMWITOR®
(§4) After a 72 hour or 6 hour incubation period, cells are harvested and counted by the Coulter Counter (Northwell Drive, England). Cell viability is determined using a Coulter Channelyzer.
(§5) The relative toxicity of the sample formulations to estimate the relative degree of toxicity for in vivo administration is carried out in vitro with the mammalian cell lines. Various concentrations of the vehicles are incubated for either 6 or 24 hours with the different mammalian cell lines. Immediate toxicity is evaluated at 6 hours by quantitating the number of dead cells in treated wells as compared to the untreated controls. Long term toxicity effects as well as effects which may inhibit cell growth are evaluated by measuring the relative degree of proliferation after an additional 48 hours incubation with ^3 H-thymidine.

[2] = system: A20 (B-cell tumor cell line); experiment: as above; assay type: cell-based, murine
Procedure: as §1, §2, §3, §4, §5

[3] = system: LB/62287 (B-cell lymphoma cell line); experiment: as above; assay type: cell-based, murine
Procedure: as §1, §2, §3, §4, §5

mammary gland = conditions: bovine, in vivo
Procedure: Multiparous Holstein-Fresian dairy cattle cultured negative for infection and with individual quarter somatic cell counts less than 200,000 cells/mL are used. The lactating dairy cows receive a ration consisting of corn silage, alfalfa hay and concentrate which is formulated to provide recommended amounts of minerals and vitamins for a lactating dairy cow. Water is provided ad libitum.
The somatic cell count (SCC) of twelve normal glands are determined prior to treatment. Three groups of four quarters each receive an intramammary infusion of 10 mL to 60 mL of the respective vehicles identified in Example 1, 15% w/v poloxamer 407 NF (PLURONIC® F127), 50% w/v glycerol, 10% w/v triacetin (glyceryl triacetate) and the sPBS as a control. In vivo degree of irritation is measured by infusing a quarter of a mammary gland with the vehicle and measuring the SCC at 12, 36 and 60 hours after infusion. The data are expressed as the stimulation index which is calculated as the average experimental SCC divided by the control SCC.

[4] = system: Staphylococcus aureus mastitis (Newbould 305); experiment: Efficacy of lysostaphin formulated in vehicles as intramammary infusion against Staphylococcus aureus mastitis; assay type: in vivo, bovine (dairy cows)
Excerpt: This experiment examines the ability of various lysostaphin formulations to eliminate S. aureus infections in the bovine mammary gland and compares the formulations with the testing of lysostaphin in a peanut oil-gel matrix, similar to that used in the commercial product CEFA-LAK®, which is used to treat mastitis in lactating dairy cows.
Lysostaphin is formulated in three vehicles: 15% w/v poloxamer 407 NF, 50% w/v glycerol or 10% w/v triacetin. Lysostaphin is also formulated in a peanut oil-gel matrix. These formulations are infused into the bovine mammary gland and the ability of these combinations to exact a biological response, either by curing the infection or by clearing the mammary gland temporarily of S. aureus, are assessed.
Recombinant lysostaphin is suspended in 10.0 mL of peanut oil vehicle or dissolved in 60.0 mL of appropriate sterile vehicle (sPBS) at a concentration of 10.0 mg/mL or 1.67 mg/mL, respectively. Each of 15% poloxamer 407 NF (PLURONIC® ACID F127, a polyoxyethylene-polyoxypropylene derivative, BASF Corporation, Parsippany, N.J.); 50% glycerol (Sigma Chemical Co., St. Louis, Mo.); and 10% triacetin (glyceryl triacetate, Sigma Chemical Co., St. Louis, Mo.) are prepared in sterile phosphate buffered saline.
Staphylococcus aureus infections of the mammary gland provide an excellent model system for evaluating therapeutic efficacy of a variety of pharmaceutical and biological agents for many infectious diseases of mammals. Therefore, experimental infections are established with S. aureus (strain Newbould 305). All mammary glands to be inoculated are free of pathogens and have individual quarter somatic cell counts (SCC) less than 200,000 cells/mL of milk. Inoculum is prepared from a four-hour culture grown in trypticase soy broth and diluted. Inoculations are made by infusion of 1.0 mL diluted culture containing 90 colony forming units of S. aureus (Newbould 305) into the teat cistern of a milked-out mammary quarter. Quarters which fail to establish an infection after six days from initial inoculation are reinfected.
Prepared in PBS is 50% glycerol and the solution is then sterile filtered (0.45μ). Poloxamer 407 NF is mixed overnight and prepared similarly. A 10% triacetin solution is prepared aseptically in sterile PBS. Appropriate amounts of lysostaphin is added so the final concentration is 1.67 mg/mL. All preparations are in a total volume of 60.0 mL and made the day of the infusion. All solutions are sterile filtered through a 0.45μ filter.
Duration of treatment: 3 consecutive PM milkings
Quarters are randomly assigned to one of six treatment groups. All quarters are infused with the appropriate vehicle (60.0 mL) with or without lysostaphin over three consecutive PM milkings. […]

S. aureus = experiment: Potentiation of bacteriostatic activity of lysostaphin by vehicles (checkered analysis); assay type: cell-based, Staphylococcus aureus
Excerpt: In order to identify the nontoxic formulations for mammalian use, toxicity is employed as a method to eliminate direct bactericidal effects on the S. aureus, as well as potential toxic effects on the target animal. Compounds are formulated with r-lysostaphin at concentrations below toxic effects and compared to the bacteriostatic activity of r-lysostaphin in a saline formulation. Some compounds potentiate r-lysostaphin bacteriostatic activity by as much as 300-1000 fold.
Several surfactants, detergents, oils, emollients and membrane solubilizers are chosen as representative of various classes of compounds which may affect protein activity. These vehicles are then evaluated for toxicity and potentiation of the bacteriostatic effects of r-lysostaphin on S. aureus according to the methods described in the foregoing examples. […] Secondly, the vehicles are subjected to the toxicity test on murine cells in vitro. Viable cells are evaluated by trypan blue exclusion and normalized to an untreated control. Thereafter, dairy cattle are infused through the teat canal with various concentrations of the vehicle to make a determination of the irritation potential after intramammary infusion as a measure of mammalian toxicity. Milk samples are collected after infusion of said vehicles and the somatic cell count is determined. The Stimulation Index equals the post-infusion SCC divided by the pre-infusion SCC. The vehicles showing minimal toxicity to S. aureus and mammalian cells in vitro and in vivo are subsequent candidates for evaluation in the in vivo potentiation trials.
Various vehicle combinations are tested in a standard checkered analysis which simultaneously varies the concentration of both parameters to examine the individual contribution of each. Vehicles are all compared to r-lysostaphin in a saline solution, i.e., the potentiation index. […] Glycerol and triacetin, while only potentiating the activity of r-lysostaphin 6-8 fold, is manifested by bactericidal effects (see above Table IV).

in vitro = assay type: cell-based, murine; conditions: mouse, p388.d1 cells, Relative Toxicity at 6 Hours
Procedure: as §1, §2, §3, §4, §5

S. aureus mastitis = experiment: Therapy of S. aureus bovine mastitis (background); conditions: in vivo efficacy trials; in words
[5] = system: S. aureus mastitis (Newbould 305); experiment: r-BoIL-2 formulated in poloxamer 407 NF as a therapeutic for S. aureus mastitis (Example 6); assay type: in vivo, Holstein-Fresian dairy cattle
Procedure: This experiment compares r-BoIL-2 formulated in poloxamer 407 NF, against CEFA-LAK® (cephapirin in a commercial formulation), Na cephapirin (in PBS) and r-BoIL-2 in combination with Na cephapirin (in PBS) as potential therapeutics for S. aureus mastitis. The study employs the following materials: recombinant bovine interleukin-2 (r-BOIL-2, Immunex Corporation, Seattle, Wash.); CEFA-LAK® (200 mg cephapirin as cephapirin sodium in a commercially packaged dose, Bristol-Meyers, Evansville, Ind.); 200 mg Na cephapirin dissolved in 10.0 mL sterile saline; PLURONIC® ACID F127 (poloxamer 407 NF, BASF Corporation, Parsippany, N.J.).
The treatment of Holstein-Fresian dairy cattle is run over three days. There are four treatment groups as follows:
Treatment 1=2 infusions consisting of 200 mg cephapirin (as CEFA-LAK®),at 0 and 12 hours.
Treatment 2=3 infusions consisting of 10 mg r-BoIL-2/poloxamer 407 NF at 0, 24 and 48 hours.
Treatment 3=3 infusions consisting of 3.3 mg r-BoIL-2 in 10 mL PBS at 0, 24 and 48 hours, followed by 2 infusions of 200 mg Na cephapirin in 10 mL PBS at 0 and 12 hours.
Treatment 4=2 infusions consisting of 200 mg Na cephapirin in 10 mL PBS at 0 and 12 hours.
All mammary glands to be infused have been infected with S. aureus (Newbould 305). Infusions are made into the teat cistern of a milked out mammary gland after the prescribed milking. […]

[6] = mouse, a20 cells, Relative Toxicity at 6 Hours

With CC(=O)OCC(COC(C)=O)OC(C)=O [Triacetin, glyceryl triacetate] the viability at 6 h ([1]; lb/62287 b-cell lymphoma, Relative Toxicity at 6 Hours) was 75 to 90%, the viability at 72 h ([1]; lb/62287 b-cell lymphoma, Relative Toxicity at 72 Hours) was 0 to 24% and the viability at 6 h [1, 6] was 75 to 90%. The “Relative Toxicity at 6 Hours” value [2] was “-”, the “Relative Toxicity at 72 Hours” value [2] was “-” and the “Relative Toxicity at 6 Hours” value [3] was “-”. For the same compound, the “Relative Toxicity at 72 Hours” value [3] was “-”, the “Tolerability / irritation upon infusion” value (mammary gland) was “A small amount of irritation to some animals” and the “% Cures” value ([4]; 100 mg lysostaphin infusions on three consecutive days) was 25%. For the same compound, the “Effect on potentiating the in vivo efficacy of lysostaphin” value ([4]; in words) was “Neither glycerol nor triacetin (both have a cure rate of 25%) has any significant effect”, the Character of potentiation (S. aureus; in words (footnotes, text)) was “Potentiates the bactericidal activity of rlysostaphin” and the “Vehicle Conc. w/Max. Potentiation (%)” value (S. aureus; with r-lysostaphin) was 10.0%.
In the case of CCCCCCCC(=O)OCC(O)CO (stereo not shown) [IMWITOR ®, Glyceryl monocaprylate], the viability at 6 h ([1]; lb/62287 b-cell lymphoma, LB, 6 h, vehicle 0.01%, read-out: Relative Toxicity at 6 Hours) is reported as 50 to 74%, the viability at 6 h ([1]; lb/62287 b-cell lymphoma, LB, 6 h, vehicle 0.1%, read-out: Relative Toxicity at 6 Hours) is reported as 25 to 49% and the viability at 6 h ([1]; lb/62287 b-cell lymphoma, LB, 6 h, vehicle 1.0%, read-out: Relative Toxicity at 6 Hours) is reported as 25 to 49%. The viability at 72 h ([1]; lb/62287 b-cell lymphoma, LB, 72 h, vehicle 0.01%, read-out: Relative Toxicity at 72 Hours) was 50 to 74%, the viability at 72 h ([1]; lb/62287 b-cell lymphoma, LB, 72 h, vehicle 0.1%, read-out: Relative Toxicity at 72 Hours) was 0 to 24% and the viability at 72 h ([1]; lb/62287 b-cell lymphoma, LB, 72 h, vehicle 1.0%, read-out: Relative Toxicity at 72 Hours) was 0 to 24%. The viability at 6 h [1, 6] was 50 to 74%, the “Relative Toxicity at 6 Hours” value [2] was “-” and the “Relative Toxicity at 72 Hours” value [2] was “-”. The viability at 6 h (in vitro) was 75 to 90%.
For lipopolysaccharide, the “Clearing of the mammary gland of S. aureus” value (S. aureus mastitis) was “able to clear the mammary gland temporarily of S. aureus”.
In the case of CC(=O)OCC1=C(C(=O)O)N2C(=O)[C@@H](NC(=O)CSc3ccncc3)[C@H]2SC1 [Cephapirin], the “Response (%)” value ([5]; CEFA-LAK 200 mg x2, r-BoIL-2/F127 10 mg x3, r-BoIL-2 3.3 mg x3 + cephapirin 200 mg x2, cephapirin 200 mg x2, quarters culture negative at first sampling) is reported as 85% and the “Cure (%)” value ([5]; same doses, days eight to fifteen following final treatment) is reported as 23.1%.
